Patent US8088805B2, “Inhibitors of histone deacetylase” (MethylGene Inc., priority 2004, dated 2012)

Columns and labels:
[1] = tested on: HCT116 human colorectal carcinoma cells; experiment: Human tumor xenograft in vivo, HCT116; conditions: Mus musculus, HCT-116; 30 mg/kg ip, mice; read-out: % Inhibition (relative to vehicle control) HCT116
Description: (§1) Eight to ten week old female BCD1 mice (Taconic Labs, Great Barrington, N.Y.) were injected subcutaneously in the flank area with 2×10^6 preconditioned HCT116 human colorectal carcinoma cells, SW48 colon cancer cells, and A549 lung cancer cells. Preconditioning of these cells was done by a minimum of three consecutive tumor transplantations in the same strain of nude mice. Subsequently, tumor fragments of approximately 30 mgs were excised and implanted subcutaneously in mice, in the left flank area, under Forene anesthesia (Abbott Labs, Geneva, Switzerland). When the tumors reached a mean volume of 100 mm^3, the mice were treated intraperitoneally by daily injection, with a solution of the histone deacetylase inhibitor in DMSO, at a starting dose of 10 mg/kg. The optimal dose of the HDAC inhibitor was established by dose response experiments according to standard protocols. Tumor volume was calculated every second day post infusion according to standard methods (e.g., Meyer et al., Int. J. Cancer 43: 851-856 (1989)).

SW48 colon cancer cells = experiment: Human tumor xenograft in vivo, SW48; conditions: Mus musculus, 30 mg/kg ip, mice, read-out: % Inhibition (relative to vehicle control) SW48
Description: as §1

A549 lung cancer cells = experiment: Human tumor xenograft in vivo, A549; conditions: 30 mg/kg ip, mice
Description: as §1

Human HDAC-1 = Human HDAC-1 (Homo sapiens, UniProt Q13547); experiment: HDAC-1 enzymatic inhibition, Assay 2 (Boc-Lys(Ac)-AMC, Fluor-de-Lys); format: biochemical; conditions: Assay 2: Boc-Lys(Ac)-AMC substrate, fluorescence; read-out: HDAC1 IC50
Chain of Human HDAC-1 (Q13547 whole entry): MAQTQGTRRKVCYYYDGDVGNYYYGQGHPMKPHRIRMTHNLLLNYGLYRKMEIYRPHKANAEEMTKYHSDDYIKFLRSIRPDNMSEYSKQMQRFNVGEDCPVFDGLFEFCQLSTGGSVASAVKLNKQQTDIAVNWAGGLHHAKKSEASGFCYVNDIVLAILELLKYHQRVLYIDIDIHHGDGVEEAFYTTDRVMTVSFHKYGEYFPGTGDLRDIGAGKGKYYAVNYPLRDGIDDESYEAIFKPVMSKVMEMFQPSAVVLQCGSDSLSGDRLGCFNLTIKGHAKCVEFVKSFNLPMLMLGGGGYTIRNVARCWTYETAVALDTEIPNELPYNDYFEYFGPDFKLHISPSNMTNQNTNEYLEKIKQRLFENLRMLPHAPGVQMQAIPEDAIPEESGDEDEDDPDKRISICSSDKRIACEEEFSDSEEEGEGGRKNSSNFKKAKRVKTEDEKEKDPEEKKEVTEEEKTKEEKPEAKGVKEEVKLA
Description: Assay 2. The following protocol was also used to assay the compounds of the invention. In the assay, the buffer used was 25 mM HEPES, pH 8.0, 137 mM NaCl, 2.7 mM KCl, 1 mM MgCl2 and the substrate was Boc-Lys(Ac)-AMC in a 50 mM stock solution in DMSO. The enzyme stock solution was 4.08 μg/mL in buffer. The compounds were pre-incubated (2 μl in DMSO diluted to 13 μl in buffer for transfer to assay plate) with enzyme (20 μl of 4.08 μg/ml) for 10 minutes at room temperature (35 μl pre-incubation volume). The mixture was pre-incubated for 5 minutes at room temperature. The reaction was started by bringing the temperature to 37° C. and adding […] substrate. Total reaction volume was 50 μl. The reaction was stopped after 20 minutes by addition of 50 μl developer, prepared as directed by Biomol (Fluor-de-Lys developer, Cat. # KI-105). A plate was incubated in the dark for 10 minutes at room temperature before reading (λEx=360 nm, λEm=470 nm, Cutoff filter at 435 nm).
Assay 1 was used to measure HDAC activity of compounds 10c, 13e, 16d, 26b, 44, 47, 61a, 61b, 63, 134, 138, and 308. Assay 2 was used to measure HDAC activity of compounds 361, 366, 367, 368, 369, 370, 371, 372, 373, 374, 375, 376, 377, and 378. In Table 14, “a” indicates activity of ≦0.1 μM, “b” indicates activity of ≦1 μM, “c” indicates activity of ≦5 μM, and “d” indicates activity of >5 μm. For the H4-Ac T24 EC vs. MS-275 assay in Table 14, “u” indicates less than 1, “v” indicates 1, and “w” indicates greater than 1. For the H3 Ac t24 assay in Table 14, “x” indicates activity of ≦1 μM, “y” indicates activity of ≦10 μM, and “z” indicates activity of ≦20 μM.

HCT116 cells = experiment: MTT assay; format: cell-based; conditions: Homo sapiens, HCT-116, 72 hours
Description: HCT116 cells (2000/well) were plated into 96-well tissue culture plates one day before compound treatment. Compounds at various concentrations were added to the cells. The cells were incubated for 72 hours at 37° C. in 5% CO2 incubator. MTT (3-[4,5-dimethylthiazol-2-yl]-2,5diphenyl tetrazolium bromide, Sigma) was added at a final concentration of 0.5 mg/ml and incubated with the cells for 4 hours before one volume of solubilization buffer (50% N,N-dimethylformamide, 20% SDS, pH 4.7) was added onto the cultured cells. After overnight incubation, solubilized dye was quantified by colorimetric reading at 570 nM using a reference at 630 nM using an MR700 plate reader (Dynatech Laboratories Inc.). OD values were converted to cell numbers according to a standard growth curve of the relevant cell line. The concentration which reduces cell numbers to 50% of that of solvent treated cells is determined as MTT IC50. In Table 14, “a” indicates activity of ≦0.1 μM, “b” indicates activity of ≦1 μM, and “c” indicates activity of ≦5 μM.

[2] = tested on: Histone H3 acetylation in T24 human bladder cancer cells; experiment: Histone H3 acetylation assay; format: cell-based; conditions: T-24, 16 h, concentration giving 50% of Emax of MS-275, read-out: H3 Ac t24
Description: T24 human bladder cancer cells growing in culture are incubated with HDAC inhibitors for 16 h. Cell viability is determined by adding 10 μl Alamar Blue (BioSource, DAL1100). Cells are washed once with PBS and fixed with methanol precooled to −20° C. for 10 min. The cells are then washed twice in PBS. The fixed cells are blocked with 50 μl of PBS+0.1% Triton X-100. Cells are probed with rabbit-anti-acetyl-H3 (Upstate #06-599) as the primary antibody and then with goat-anti-rabbit-HRP (Sigma #A-0545) as the secondary antibody. Fluorescence is read by fluorometer at Ex:550, Em:610, Cutoff:590 (Auto PMT, 15 reads/well) after addition of Amplex-Red. Fluorescence signal is normalized against cell viability derived from Alamar Blue. Maximum acetylation signal of MS-275 (fluorescence unit) is measured as Emax. The concentration of compound which gives 50% of Emax is EC50. In Table 14, “x” indicates activity of ≦1 μM, “y” indicates activity of ≦10 μM, and “z” indicates activity of ≦20 μM.

| IC50 (Human HDAC-1) [nM] | IC50 (HCT116 cells) [nM] | EC50 [2] [nM] | SMILES | inhibition in vivo at 30 mg/kg [1] [%] | inhibition in vivo at 30 mg/kg (SW48 colon cancer cells) [%] | % Inhibition (relative to vehicle control) A549 (A549 lung cancer cells) [%] |
| --- | --- | --- | --- | --- | --- | --- |
| – | – | – | Nc1ccccc1NC(=O)c1ccc(CNc2nccc(-c3nccs3)n2)cc1 [26c, N-(2-Amino-phenyl)-4-[(4-thiazol-2-yl-pyrimidin-2-ylamino)-methyl]-benzamide] | 88 | 89.5 | – |
| – | – | – | CN(C)C(=O)c1ccc(-c2ccnc(NCc3ccc(C(=O)Nc4ccccc4N)cc3)n2)cn1 [29a, 5-{2-[4-(2-Amino-phenylcarbamoyl)-benzylamino]-pyrimidin-4-yl}-pyridine-2-carboxylic acid dimethylamide] | – | 70.2 | 31.8 |
| – | – | – | Nc1ccccc1NC(=O)c1ccc(CNc2nccc(-c3ccncc3)n2)cc1 [31b, N-(2-Amino-phenyl)-4-[(4-pyridin-4-yl-pyrimidin-2-ylamino)-methyl]-benzamide] | 39.4 | 47.8 | – |
| – | – | – | Nc1ccccc1NC(=O)c1ccc(CNc2nccc(-c3ccc(N4CCOCC4)nc3)n2)cc1 [34a, N-(2-Amino-phenyl)-4-{[4-(6-morpholin-4-yl-pyridin-3-yl)-pyrimidin-2-ylamino]-methyl}-benzamide] | – | 25.5 | 67.1 |
| – | – | – | COCOC(C)(C)c1ccc(-c2ccnc(NCc3ccc(C(=O)Nc4ccccc4N)cc3)n2)cn1 [58b, N-(2-Amino-phenyl)-4-({4-[6-(1-methoxymethoxy-1-methyl-ethyl)-pyridin-3-yl]-pyrimidin-2-ylamino}-methyl)-benzamide] | 29.4 | 34.6 | – |
| – | – | – | CC(=O)Nc1ccc(NCc2ccc(C(=O)Nc3ccccc3N)cc2)cn1 [212f, 4-[(6-Acetylamino-pyridin-3-ylamino)-methyl]-N-(2-amino-phenyl)-benzamide] | 65.7 | 32.7 | – |
| – | – | – | COc1ccc(NCc2ccc(C(=O)Nc3ccccc3N)cc2)cc1F [212h, N-(2-Amino-phenyl)-4-[(3-fluoro-4-methoxy-phenylamino)-methyl]-benzamide] | – | 44 | 54.4 |
| – | – | – | CN(C)CC(=O)Nc1ccc2nc(SCc3ccc(C(=O)Nc4ccccc4N)cc3)sc2c1 [compound 158, N-(2-Amino-phenyl)-4-[6-(2-dimethylamino-acetylamino)-benzothiazol-2-ylsulfanylmethyl]-benzamide] | – | 43.2 | 42.6 |
| – | – | – | Nc1ccccc1NC(=O)c1ccc(CSc2nc3cc(F)c(F)cc3[nH]2)cc1 [compound 194, N-(2-Amino-phenyl)-4-(5,6-difluoro-1H-benzoimidazol-2-ylsulfanylmethyl)-benzamide] | 54.5 | 23.1 | – |
| – | – | – | Cn1cnc2cc(NCc3ccc(C(=O)Nc4ccccc4N)cc3)ccc21 [compound 252, N-(2-Amino-phenyl)-4-[(1-methyl-1H-benzoimidazol-5-ylamino)-methyl]-benzamide] | 70.6 | 25.9 | – |
| – | – | – | CCC(=O)Nc1sc(Cc2ccc(C(=O)Nc3ccccc3N)cc2)cc1C(N)=O [compound 296, 5-[4-(2-Amino-phenylcarbamoyl)-benzyl]-2-propionylamino thiophene-3-carboxylic acid amide] | 63.9 | 53.4 | – |
| ≤ 100 | 100 to 1000 | ≤ 10000 | Nc1ccccc1NC(=O)c1ccc(N2CC[C@H](Nc3cccnc3)C2)cc1 [compound 361, (S)—N-(2-Aminophenyl)-4-(3-(pyridin-3-ylamino)pyrrolidin-1-yl)benzamide] | – | – | – |
| 100 to 1000 | 1000 to 5000 | ≤ 20000 | Nc1ccccc1NC(=O)c1ccc(N2CC[C@@H](Nc3cccnc3)C2)cc1 [compound 366, (R)—N-(2-Aminophenyl)-4-(3-(pyridin-3-ylamino)pyrrolidin-1-yl)benzamide] | – | – | – |
| 100 to 1000 | 100 to 1000 | ≤ 10000 | Nc1ccccc1NC(=O)c1ccc(N2CC[C@H](Oc3cccnc3)C2)cc1 [compound 367, (S)—N-(2-Aminophenyl)-4-(3-(pyridin-3-yloxy)pyrrolidin-1-yl)benzamide] | – | – | – |
| 100 to 1000 | 100 to 1000 | ≤ 1000 | Nc1ccccc1NC(=O)c1ccc(N2CC[C@H](Nc3ccccc3)C2)cc1 [compound 369, (S)—N-(2-Aminophenyl)-4-(3-(phenylamino)pyrrolidin-1-yl)benzamide] | – | – | – |
| ≤ 100 | 100 to 1000 | ≤ 1000 | COc1cc(O[C@H]2CCN(c3ccc(C(=O)Nc4ccccc4N)cc3)C2)cc(OC)c1OC [compound 374, (S)—N-(2-Aminophenyl)-4-(3-(3,4,5-trimethoxyphenoxy)pyrrolidin-1-yl)benzamide] | – | – | – |
| ≤ 100 | > 5000 | ≤ 1000 | Nc1ccccc1NC(=O)c1ccc(N2CC[C@H](Oc3ccc4c(c3)OCO4)C2)cc1 [compound 375, (S)—N-(2-Aminophenyl)-4-(3-(benzo[d][1,3]dioxol-5-yloxy)pyrrolidin-1-yl)benzamide] | – | – | – |
| 100 to 1000 | 100 to 1000 | ≤ 10000 | Nc1ccccc1NC(=O)c1ccc(N2CC[C@H](Sc3ccccn3)C2)cc1 [compound 378, (S)—N-(2-Aminophenyl)-4-(3-(pyridin-2-ylthio)pyrrolidin-1-yl)benzamide] | – | – | – |
